Measured values as given in US10125134B2 (Mirati Therapeutics, Inc., priority 2016, dated 2018).
Like-named read-outs stand apart in the source and are kept apart here.

Key:
[1] = biological target: KRas G12C (Homo sapiens, UniProt P01116, C118S/C51S/C80L/G12C); assay: KRas G12C Modification Assay (LCMS detection of covalent adduct); format: binding; details: normalized percent of control; tested at 5 μM concentration for 3 hours
In short: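 Covalent modification was read by reverse-phase LC/MS of intact protein after compound exposure, each reaction stopped at its time point with 25 mM acetic acid. Unmodified-protein signal, taken as percent of total, was normalised to untreated protein and reported as POC.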

[2] = tested on: NCI-H358 cells (express KRas G12C), Phospho-ERK; assay: Cellular inhibition of KRas G12C: Phospho-ERK in NCI-H358 cells; format: cell-based; details: pERK(Thr202/Tyr204) normalized with GAPDH, NCI-H358 cells, 3 hours, read-out: IC50
In short: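 IC50 derived by 4-parameter fit of GAPDH-normalized pERK(Thr202/Tyr204) signal, as percent of DMSO control. Signal came from in-cell immunodetection with infrared secondaries after 3 h compound exposure of KRas G12C NCI-H358 cells at 0.5% DMSO.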

SMILES | POC [1] | IC50 ([2]; Homo sapiens, NCI-H358, 3 h) | IC50 ([2]; Homo sapiens) | IC50 [2]
C=CC(=O)N1CCN(c2nc(OC[C@@H]3C[C@H](F)CN3C)nc3c2CCN(c2cccc4ccccc24)C3)CC1CC#N (stereo partly drawn) [Example 221, 2-(1-acryloyl-4-(2-(((2S,4S)-4-fluoro-1-methylpyrrolidin-2-yl)methoxy)-7-(naphthalen-1-yl)-5,6,7,8-tetrahydropyrido[3,4-d]pyrimidin-4-yl)piperazin-2-yl)acetonitrile] | C (“C”>50% POC) | 0.0001 to 1 µM | – | –
C=CC(=O)N1CCN(c2nc(OC[C@@H]3CCCN3C)nc3c2CCN(c2c(OC)ccc4[nH]ncc24)C3)CC1 [Example 157, (S)-1-(4-(7-(5-methoxy-1H-indazol-4-yl)-2-((1-methylpyrrolidin-2-yl)methoxy)-5,6,7,8-tetrahydropyrido[3,4-d]pyrimidin-4-yl)piperazin-1-yl)prop-2-en-1-one] | C (“C”>50% POC) | > 1 µM | – | –
C=CC(=O)N1CCN(c2nc(OC[C@H]3CCCN3C)nc3c2CCN(c2cc(O)cc4ccccc24)C3)[C@@H](C)C1 [Example 203, 1-((S)-4-(7-(3-hydroxynaphthalen-1-yl)-2-(((R)-1-methylpyrrolidin-2-yl)methoxy)-5,6,7,8-tetrahydropyrido[3,4-d]pyrimidin-4-yl)-3-methylpiperazin-1-yl)prop-2-en-1-one] | C (“C”>50% POC) | 0.0001 to 1 µM | – | –
C=CC(=O)N1CCN(c2nc(OC[C@@H]3CCCN3C)nc3c2CCN(c2cccc4cnccc24)C3)CC1CC#N (stereo partly drawn) [Example 262, 2-[4-[7-(5-isoquinolyl)-2-[[(2S)-1-methylpyrrolidin-2-yl]methoxy]-6,8-dihydro-5H-1-pyrido[3,4-d]pyrimidin-4-yl]-1-prop-2-enoyl-piperazin-2-yl]acetonitrile] | A (“A”≤25% POC) | > 1 µM | – | –
C=CC(=O)N1C[C@H]2CC[C@@H](C1)N2c1nc(OC(C)CN(C)C)nc2c1CCN(c1cc(O)cc3ccccc13)C2 (stereo partly drawn) [Example 46, 1-((1R,5S)-8-(2-((1-(dimethylamino)propan-2-yl)oxy)-7-(3-hydroxynaphthalen-1-yl)-5,6,7,8-tetrahydropyrido[3,4-d]pyrimidin-4-yl)-3,8-diazabicyclo[3.2.1]octan-3-yl)prop-2-en-1-one] | A (“A”≤25% POC) | – | > 1 µM | –
C=CC(=O)N1CC2(C1)CN(c1nc(OCCN(C)C)nc3c1CCN(c1cc(O)cc4ccccc14)C3)C2 [Example 16, 1-(6-(2-(2-(dimethylamino)ethoxy)-7-(3-hydroxynaphthalen-1-yl)-5,6,7,8-tetrahydropyrido[3,4-d]pyrimidin-4-yl)-2,6-diazaspiro[3.3]heptan-2-yl)prop-2-en-1-one] | C (“C”>50% POC) | > 1 µM | – | –
C=CC(=O)N1CCN(c2nc(OC[C@H]3CCN(C)C3)nc3c2CCN(c2cc(O)cc4ccccc24)C3)CC1 [Example 188, (S)-1-(4-(7-(3-hydroxynaphthalen-1-yl)-2-((1-methylpyrrolidin-3-yl)methoxy)-5,6,7,8-tetrahydropyrido[3,4-d]pyrimidin-4-yl)piperazin-1-yl)prop-2-en-1-one] | C (“C”>50% POC) | 0.0001 to 1 µM | – | –
C=CC(=O)N1CCN(c2nc(OC[C@@H]3CCCN3C)nc3c2CCN(c2cccc4cccc(CC)c24)C3)C[C@@H]1CC#N [Example 360, 2-[(2S)-4-[7-(8-ethyl-1-naphthyl)-2-[[(2S)-1-methylpyrrolidin-2-yl]methoxy]-6,8-dihydro-5H-pyrido[3,4-d]pyrimidin-4-yl]-1-prop-2-enoyl-piperazin-2-yl]acetonitrile] | C (“C”>50% POC) | 0.0001 to 1 µM | – | –
C=CC(=O)N1CCN(c2nc(OC[C@@H]3CCCN3C)nc3c2CCN(c2cccc(F)c2OC)C3)CC1CC#N (stereo partly drawn) [Example 308, 2-[4-[7-(3-fluoro-2-methoxy-phenyl)-2-[[(2S)-1-methylpyrrolidin-2-yl]methoxy]-6,8-dihydro-5H-pyrido[3,4-d]pyrimidin-4-yl]-1-prop-2-enoyl-piperazin-2-yl]acetonitrile] | C (“C”>50% POC) | 0.0001 to 1 µM | – | –
C=CC(=O)N1CCN(c2nc(OCCN3CCC(F)C3)nc3c2CCN(c2cc(O)cc4ccccc24)C3)CC1 (stereo not drawn) [Example 49, 1-(4-(2-(2-(3-fluoropyrrolidin-1-yl)ethoxy)-7-(3-hydroxynaphthalen-1-yl)-5,6,7,8-tetrahydropyrido[3,4-d]pyrimidin-4-yl)piperazin-1-yl)prop-2-en-1-one] | B (“B”>25% POC−≤50% POC) | > 1 µM | – | –
C=CC(=O)N1CCN(c2nc(OC[C@@H]3CN(C)CCO3)nc3c2CCN(c2cccc4ccccc24)C3)CC1CC#N (stereo partly drawn) [Example 442, 2-(1-Acryloyl-4-(2-(((S)-4-methylmorpholin-2-yl)methoxy)-7-(naphthalen-1-yl)-5,6,7,8-tetrahydropyrido[3,4-d]pyrimidin-4-yl)piperazin-2-yl)acetonitrile] | C (“C”>50% POC) | – | – | 0.0001 to 1 µM
C=CC(=O)N1CCN(c2nc(OCCCCN(C)C)nc3c2CCN(c2cc(O)cc4ccccc24)C3)CC1 [Example 40, 1-(4-(2-(4-(dimethylamino)butoxy)-7-(3-hydroxynaphthalen-1-yl)-5,6,7,8-tetrahydropyrido[3,4-d]pyrimidin-4-yl)piperazin-1-yl)prop-2-en-1-one] | C (“C”>50% POC) | 0.0001 to 1 µM | – | –
C=CC(=O)N1C[C@H](C)N(c2nc(OC[C@@H]3CCCN3C)nc3c2CCN(c2cccc4ccccc24)C3)C[C@@H]1CC#N [Example 368, 2-((2S,5S)-1-acryloyl-5-methyl-4-(2-(((S)-1-methylpyrrolidin-2-yl)methoxy)-7-(naphthalen-1-yl)-5,6,7,8-tetrahydropyrido[3,4-d]pyrimidin-4-yl)piperazin-2-yl)acetonitrile] | C (“C”>50% POC) | > 1 µM | – | –
C=CC(=O)N1CCN(c2nc(N3CC(N(C)C)C3)nc3c2CCN(c2cc(O)cc4ccccc24)C3)CC1 [Example 128, 1-(4-(2-(3-(dimethylamino)azetidin-1-yl)-7-(3-hydroxynaphthalen-1-yl)-5,6,7,8-tetrahydropyrido[3,4-d]pyrimidin-4-yl)piperazin-1-yl)prop-2-en-1-one] | C (“C”>50% POC) | > 1 µM | – | –
C=CC(=O)N1CCN(c2nc(OC[C@@H]3CCCN3C)nc3c2CCN(c2cccc4ccccc24)C3)C[C@@H]1CCOC [Example 432, 1-((S)-2-(2-methoxyethyl)-4-(2-(((S)-1-methylpyrrolidin-2-yl)methoxy)-7-(naphthalen-1-yl)-5,6,7,8-tetrahydropyrido[3,4-d]pyrimidin-4-yl)piperazin-1-yl)prop-2-en-1-one] | C (“C”>50% POC) | > 1 µM | – | –
C=CC(=O)N1CCN(c2nc(OC[C@@H]3CCCN3C)nc3c2CCN(c2c(C)c(C)cc4[nH]ncc24)C3)CC1 [Example 451, 1-[4-[7-(5,6-dimethyl-1H-indazol-4-yl)-2-[[(2S)-1-methylpyrrolidin-2-yl]methoxy]-6,8-dihydro-5H-pyrido[3,4-d]pyrimidin-4-yl]piperazin-1-yl]prop-2-en-1-one] | C (“C”>50% POC) | 0.0001 to 1 µM | – | –
C=CC(=O)N1CCN(c2nc(OC[C@@H]3CCN(C)C3)nc3c2CCN(c2ccccc2C(F)(F)F)C3)CC1CC#N (stereo partly drawn) [Example 281, 2-(1-acryloyl-4-(2-(((R)-1-methylpyrrolidin-3-yl)methoxy)-7-(2-(trifluoromethyl)phenyl)-5,6,7,8-tetrahydropyrido[3,4-d]pyrimidin-4-yl)piperazin-2-yl)acetonitrile] | C (“C”>50% POC) | 0.0001 to 1 µM | – | –
C=CC(=O)N1CCN(c2nc(N3CCCC(N(C)C)C3)nc3c2CCN(c2cccc4ccccc24)C3)C[C@@H]1CC#N (stereo partly drawn) [Example 404, 2-((2S)-1-acryloyl-4-(2-(3-(dimethylamino)piperidin-1-yl)-7-(naphthalen-1-yl)-5,6,7,8-tetrahydropyrido[3,4-d]pyrimidin-4-yl)piperazin-2-yl)acetonitrile] | C (“C”>50% POC) | 0.0001 to 1 µM | – | –
C=CC(=O)N1CCN(c2nc(OC[C@@H]3[C@H](F)CCN3C)nc3c2CCN(c2cccc4ccccc24)C3)C[C@@H]1CC#N [Example 438, 2-((S)-1-acryloyl-4-(2-(((2R,3R)-3-fluoro-1-methylpyrrolidin-2-yl)methoxy)-7-(naphthalen-1-yl)-5,6,7,8-tetrahydropyrido[3,4-d]pyrimidin-4-yl)piperazin-2-yl)acetonitrile] | C (“C”>50% POC) | 0.0001 to 1 µM | – | –
C=CC(=O)N1CCN(c2nc(OC[C@@H]3CCCN3C)nc3c2CCN(c2nccc4ccccc24)C3)CC1CC#N (stereo partly drawn) [Example 258, 2-[4-[7-(1-isoquinolyl)-2-[[(2S)-1-methylpyrrolidin-2-yl]methoxy]-6,8-dihydro-5H-pyrido[3,4-d]pyrimidin-4-yl]-1-prop-2-enoyl-piperazin-2-yl]acetonitrile] | C (“C”>50% POC) | > 1 µM | – | –
C=CC(=O)N1CCN(c2nc(OC[C@@H]3CCCN3C)nc3c2CCN(c2ccc(F)cc2C(F)(F)F)C3)CC1CC#N (stereo partly drawn) [Example 276, 2-(1-acryloyl-4-(7-(4-fluoro-2-(trifluoromethyl)phenyl)-2-(((S)-1-methylpyrrolidin-2-yl)methoxy)-5,6,7,8-tetrahydropyrido[3,4-d]pyrimidin-4-yl)piperazin-2-yl)acetonitrile] | C (“C”>50% POC) | 0.0001 to 1 µM | – | –
